≈ marks a conversion by molar mass, not a printed value. Read-outs that look alike come from different tables or passages of the source. Marks after values point to notes of the source that are not given here.
Assays:
A. baumannii = assay: microbe, parasite or virus in culture; conditions: mode of 6 replicates; for MIC: Acinetobacter baumannii
In short: (§1)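 MICs were scored by eye after 18-20 h static incubation at 37 °C, with bacteria at 5 × 10^5 CFU mL^−1 in MHB. Peptides were serially diluted 2-fold over 12 points, top 128 or 64 μg mL^−1. CAMHB (CLSI) and 1% agarose-MHB variants were also run, at least six replicates.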

E. coli [1] = assay: microbe, parasite or virus in culture; conditions: for MIC: Escherichia coli
In short: as §1

K. pneumoniae = assay: microbe, parasite or virus in culture; conditions: mode of 6 replicates; for MIC: Klebsiella pneumoniae
In short: as §1

P. aeruginosa = assay: microbe, parasite or virus in culture; conditions: mode of 6 replicates; for MIC: Pseudomonas aeruginosa
In short: as §1

S. aureus = assay: microbe, parasite or virus in culture
In short: as §1

S. enterica Typhi = assay: microbe, parasite or virus in culture
In short: as §1

[2] = tested on: A. baumannii clinical isolates; assay: microbe, parasite or virus in culture
In short: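 MIC90 from CLSI broth microdilution (M07-A9) in two clinical-isolate panels. US panel (331 isolates, 2010-2012): AA139 diluted in 0.01% acetic acid/0.1% BSA. Worldwide panel (445 isolates, 2011-2013, four regions): CAMHB, with 0.002% Tween 80 added for AA139 and polymyxin B.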

E. coli [3] = tested on: E. coli; set-up: method as in Hasman H, et al. Euro. Surveill. (2015) 20:49; conditions: E. coli ESBL20150072, mcr-1 pos; ESBL; CAMHB; comparator antibiotics; ref Hasman H, et al. Euro. Surveill. (2015) 20:49; cited from earlier work
[4] = A. baumannii, worldwide isolates 2011-2013, n = 108
[5] = Worldwide isolates 2011-2013, A. baumannii n = 108

In the case of “polymyxin B [PolymyxinB, reference compound]”, the “BMD MIC” value (A. baumannii; A. baumannii ATCC 19636 type strain, CAMHB) was 0.06 µg/mL, the “BMD MIC” value (A. baumannii; A. baumannii ATCC 19636 type strain, MHB) was 0.03 µg/mL and the “BMD MIC” value (A. baumannii; A. baumannii Greece CI, XDR, PmxR, MHB) was 8 to 16 µg/mL. For the same compound, the “MIC against E. coli AID#172 MDR clinical isolate” value (E. coli [1]; BMD) was 0.03 µg/mL, the “BMD MIC” value (E. coli [1]; E. coli ATCC 25922 FDA control strain, CAMHB, mode of 6 replicates) was 0.125 µg/mL and the “BMD MIC” value (E. coli [1]; E. coli ATCC 25922 FDA control strain, MHB, mode of 6 independent biological replicates) was 0.25 µg/mL. The “BMD MIC” value (E. coli [1]; E. coli ATCC 700926 K12 (MG1655), CAMHB, mode of 6 replicates) was 0.015 µg/mL, the “BMD MIC” value (E. coli [1]; E. coli ATCC 700928 CFT073 UPEC, CAMHB, mode of 6 replicates) was ≤0.25 µg/mL and the “BMD MIC” value (E. coli [1]; E. coli CI 12-6-83 Hong Kong, mcr-1 pos, ESBL, CAMHB, mode of 6 replicates) was 2 µg/mL. The “BMD MIC” value (K. pneumoniae; K. pneumoniae ATCC 13883 type strain (polymyxin/colistin heteroresistant), MHB) was 0.5-8# μg mL-1, the “BMD MIC” value (K. pneumoniae; K. pneumoniae ATCC 700603 (K6), MDR, OXA-2/SHV-18, CAMHB) was 0.06 µg/mL and the “BMD MIC” value (K. pneumoniae; K. pneumoniae ATCC 700603 (K6), MDR, OXA-2/SHV-18, MHB) was 0.125 µg/mL. For the same compound, the “BMD MIC” value (K. pneumoniae; K. pneumoniae BAA-2146, MDR, ESBL, NDM-1 pos, MHB) was 0.125 µg/mL, the “BMD MIC” value (K. pneumoniae; K. pneumoniae Greece CI 8_GR_13, XDR, KPC-2, PmxR, MHB) was 32 µg/mL and the “BMD MIC” value (P. aeruginosa; P. aeruginosa ATCC 27853 control strain, CAMHB) was ≤0.25 µg/mL. The “BMD MIC” value (P. aeruginosa; P. aeruginosa ATCC 27853 control strain, MHB) was 0.25 µg/mL, the “BMD MIC” value (P. aeruginosa; P. aeruginosa FADDI-070, MDR, PmxR, MHB/CAMHB) was 32 µg/mL and the “BMD MIC” value (S. aureus; S. aureus ATCC 25923 MSSA, MHB, mode of 6 replicates) was 128 µg/mL. The “BMD MIC” value (S. enterica Typhi; S. enterica Typhi ATCC 14028 control strain, CDC 6516-60, CAMHB, mode of 6 replicates) was 0.03 µg/mL, the “Number of isolates with MIC 0.125 (MIC frequency distribution)” value [2] was 4 and the MIC50 [2, 4] was 0.03 µg/mL. For the same compound, the MIC90 [2, 4] was 0.125 µg/mL, the “Number of isolates with MIC 0.03 (MIC frequency distribution)” value ([2]; A. baumannii, worldwide isolates 2011-2013, n = 108, count of isolates at MIC 0.03) was 75 and the “Number of isolates with MIC 0.06 (MIC frequency distribution)” value ([2]; A. baumannii, worldwide isolates 2011-2013, n = 108, count of isolates at MIC 0.06) was 18. The “Number of isolates with MIC 0.25 (MIC frequency distribution)” value ([2]; A. baumannii, worldwide isolates 2011-2013, n = 108, count of isolates at MIC 0.25) was 0, the “Number of isolates with MIC 0.5 (MIC frequency distribution)” value ([2]; A. baumannii, worldwide isolates 2011-2013, n = 108, count of isolates at MIC 0.5) was 2 and the “Number of isolates with MIC 1 (MIC frequency distribution)” value ([2]; A. baumannii, worldwide isolates 2011-2013, n = 108, count of isolates at MIC 1) was 2. The “Number of isolates with MIC 2 (MIC frequency distribution)” value ([2]; A. baumannii, worldwide isolates 2011-2013, n = 108, count of isolates at MIC 2) was 1, the “Number of isolates with MIC 4 (MIC frequency distribution)” value ([2]; A. baumannii, worldwide isolates 2011-2013, n = 108, count of isolates at MIC 4) was 1 and the “Number of isolates with MIC 8 (MIC frequency distribution)” value ([2]; A. baumannii, worldwide isolates 2011-2013, n = 108, count of isolates at MIC 8) was 3. For the same compound, the “Number of isolates with MIC 16 (MIC frequency distribution)” value ([2]; A. baumannii, worldwide isolates 2011-2013, n = 108, count of isolates at MIC 16) was 0, the “Number of isolates with MIC 32 (MIC frequency distribution)” value ([2]; A. baumannii, worldwide isolates 2011-2013, n = 108, count of isolates at MIC 32) was 0 and the “Number of isolates with MIC 64 (MIC frequency distribution)” value ([2]; A. baumannii, worldwide isolates 2011-2013, n = 108, count of isolates at MIC 64) was 0. For the same compound, the “Number of isolates with MIC 128 (MIC frequency distribution)” value ([2]; A. baumannii, worldwide isolates 2011-2013, n = 108, count of isolates at MIC 128) was 0, the “Number of isolates with MIC >16 (MIC frequency distribution)” value ([2]; A. baumannii, worldwide isolates 2011-2013, n = 108, count of isolates at MIC >16) was 0 and the “Number of isolates with MIC >32 (MIC frequency distribution)” value ([2]; A. baumannii, worldwide isolates 2011-2013, n = 108, count of isolates at MIC >32) was 0. The “Number of isolates with MIC >128 (MIC frequency distribution)” value ([2]; A. baumannii, worldwide isolates 2011-2013, n = 108, count of isolates at MIC >128) was 0, the “Number of isolates with MIC ≤0.015 (MIC frequency distribution)” value ([2]; A. baumannii, worldwide isolates 2011-2013, n = 108, count of isolates at MIC ≤0.015) was 2 and the “BMD MIC” value (E. coli [3]) was 4 µg/mL.
In the case of CNC(C)C1CCC(N)C(OC2C(N)CC(N)C(OC3OCC(C)(O)C(NC)C3O)C2O)O1 (centres unmarked) [Gentamicin, gentamicin, reference compound], the MIC (A. baumannii; ATCC19636, read-out: BMD MIC, A. baumannii ATCC 19636 type strain, CAMHB) was 16 µg/mL (≈ 33.5 µM), the MIC (A. baumannii; ATCC19636, read-out: BMD MIC, A. baumannii ATCC 19636 type strain, MHB) was 32 µg/mL (≈ 67 µM) and the MIC (A. baumannii; read-out: BMD MIC, A. baumannii Greece CI, XDR, PmxR, MHB) was > 32 µg/mL. The MIC (E. coli [1]; ATCC25922, read-out: BMD MIC, E. coli ATCC 25922 FDA control strain, CAMHB, mode of 6 replicates) was ≤ 0.25 µg/mL, the MIC (E. coli [1]; ATCC25922, read-out: BMD MIC, E. coli ATCC 25922 FDA control strain, MHB, mode of 6 independent biological replicates) was 1 µg/mL (≈ 2.09 µM) and the MIC (E. coli [1]; ATCC700926|MG1655, read-out: BMD MIC, E. coli ATCC 700926 K12 (MG1655), CAMHB, mode of 6 replicates) was 0.5 µg/mL (≈ 1.05 µM). It also gave an MIC (E. coli [1]; ATCC700928, read-out: BMD MIC, E. coli ATCC 700928 CFT073 UPEC, CAMHB, mode of 6 replicates) of 0.5 µg/mL (≈ 1.05 µM), an MIC (E. coli [1]; read-out: BMD MIC, E. coli CI 12-6-83 Hong Kong, mcr-1 pos, ESBL, CAMHB, mode of 6 replicates) of 0.5 µg/mL (≈ 1.05 µM) and an MIC (K. pneumoniae; ATCC13883, read-out: BMD MIC, K. pneumoniae ATCC 13883 type strain (polymyxin/colistin heteroresistant), MHB) of 0.5 µg/mL (≈ 1.05 µM). The MIC (K. pneumoniae; ATCC700603, read-out: BMD MIC, K. pneumoniae ATCC 700603 (K6), MDR, OXA-2/SHV-18, CAMHB) was 4 µg/mL (≈ 8.38 µM), the MIC (K. pneumoniae; ATCC700603, read-out: BMD MIC, K. pneumoniae ATCC 700603 (K6), MDR, OXA-2/SHV-18, MHB) was 4 µg/mL (≈ 8.38 µM) and the MIC (K. pneumoniae; BAA2146, read-out: BMD MIC, K. pneumoniae BAA-2146, MDR, ESBL, NDM-1 pos, MHB) was > 32 µg/mL. For the same compound, the MIC (P. aeruginosa; ATCC27853, read-out: BMD MIC, P. aeruginosa ATCC 27853 control strain, CAMHB) was 1 µg/mL (≈ 2.09 µM), the MIC (P. aeruginosa; ATCC27853, read-out: BMD MIC, P. aeruginosa ATCC 27853 control strain, MHB) was 1 µg/mL (≈ 2.09 µM) and the MIC (P. aeruginosa; read-out: BMD MIC, P. aeruginosa FADDI-070, MDR, PmxR, MHB/CAMHB) was 32 µg/mL (≈ 67 µM). For the same compound, the MIC (S. aureus; Staphylococcus aureus, ATCC25923 / MSSA, read-out: BMD MIC) was 4 µg/mL (≈ 8.38 µM), the MIC (S. enterica Typhi; Salmonella enterica, ATCC14028 / TYPHI, read-out: BMD MIC) was 1 µg/mL (≈ 2.09 µM) and the MIC90 ([2]; Acinetobacter baumannii) was > 32 µg/mL. For the same compound, the MIC90 ([2]; US isolates 2010–2012, A. baumannii MDR, n = 19) was >32 µg/mL, the MIC90 ([2]; US isolates 2010–2012, A. baumannii XDR, n = 31) was >32 µg/mL and the MIC50 [2, 5] was > 32 µg/mL. The MIC90 [2, 5] was > 32 µg/mL and the “BMD MIC” value (E. coli [3]) was >8 µg/mL.
